Experiment [1] concerns the target T1, Glucagon receptor (Homo sapiens, UniProt P47871). In words: Antagonist activity at human GCGR expressed in CHO cells assessed as inhibition of glucagon-stimulated cAMP production preincubated for 30 mins followed by glucagon induction measured after 45 mins by LANCE assay. In kind it is functional, cell-based.
Experiment [2] concerns the target T1, Glucagon receptor. As to the kind of experiment: biochemical. It is filed as cell-based, CHO.
Description: Displacement of [125I]-glucagon from recombinant human GCGR expressed in CHO cells after 60 mins by scintillation counting analysis
Experiment [3] deals with Glucagon receptor (Mus musculus, UniProt Q61606). In kind it is cell membranes, Liver, Membrane.
Glucagon receptor (Mus musculus, UniProt Q61606), sequence (Q61606 whole entry): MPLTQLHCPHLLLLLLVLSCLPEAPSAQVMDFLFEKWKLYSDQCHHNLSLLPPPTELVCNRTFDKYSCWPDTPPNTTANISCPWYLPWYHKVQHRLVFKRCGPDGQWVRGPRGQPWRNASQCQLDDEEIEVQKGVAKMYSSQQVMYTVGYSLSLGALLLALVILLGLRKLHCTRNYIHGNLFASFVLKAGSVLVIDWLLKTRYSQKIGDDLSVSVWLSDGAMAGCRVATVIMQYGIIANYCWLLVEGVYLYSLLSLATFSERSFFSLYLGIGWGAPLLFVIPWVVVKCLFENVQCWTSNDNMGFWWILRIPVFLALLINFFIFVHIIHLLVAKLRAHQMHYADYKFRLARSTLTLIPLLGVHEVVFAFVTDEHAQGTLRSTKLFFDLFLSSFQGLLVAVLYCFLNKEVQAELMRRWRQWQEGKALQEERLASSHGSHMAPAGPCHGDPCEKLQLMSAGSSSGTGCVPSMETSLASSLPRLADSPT
Description: Displacement of [125I]-glucagon from GCGR in mouse liver membranes after 60 mins by scintillation counting analysis
Experiment [4] concerns the target Glucagon-like peptide 1 receptor (Homo sapiens, UniProt P43220). In words: Antagonist activity at human GLP-1R expressed in CHO cells assessed as inhibition of GLP-1-stimulated cAMP production preincubated for 30 mins followed by GLP-1 induction measured after 45 mins by LANCE assay. It is filed as functional, cell-based. (Changes in cAMP serve as a functional read-out for many G protein-coupled receptors.)

Structures are written as SMILES.

The values that follow come from ChEMBL document CHEMBL3232855, “The discovery of N-((2H-tetrazol-5-yl)methyl)-4-((R)-1-((5r,8R)-8-(tert-butyl)-3-(3,5-dichlorophenyl)-2-oxo-1,4-diazaspiro[4.5]dec-3-en-1-yl)-4,4-dimethylpentyl)benzamide (SCH 900822): a potent and selective glucagon receptor antagonist” (J Med Chem, 2014).

Glucagon-like peptide 1 receptor, sequence (P43220 whole entry): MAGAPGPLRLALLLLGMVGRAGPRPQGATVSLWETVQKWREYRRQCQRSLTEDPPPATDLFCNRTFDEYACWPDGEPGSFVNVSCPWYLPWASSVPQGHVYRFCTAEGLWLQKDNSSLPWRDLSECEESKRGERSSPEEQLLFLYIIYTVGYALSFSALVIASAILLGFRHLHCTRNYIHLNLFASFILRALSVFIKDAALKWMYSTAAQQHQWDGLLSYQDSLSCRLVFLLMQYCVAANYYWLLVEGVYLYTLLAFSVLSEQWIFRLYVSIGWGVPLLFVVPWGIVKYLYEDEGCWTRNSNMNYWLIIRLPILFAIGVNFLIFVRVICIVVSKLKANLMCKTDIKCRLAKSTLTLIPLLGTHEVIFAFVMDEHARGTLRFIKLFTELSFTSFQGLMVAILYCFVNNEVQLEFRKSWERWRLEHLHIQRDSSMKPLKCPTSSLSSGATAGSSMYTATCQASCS
T1 sequence (P47871 whole entry): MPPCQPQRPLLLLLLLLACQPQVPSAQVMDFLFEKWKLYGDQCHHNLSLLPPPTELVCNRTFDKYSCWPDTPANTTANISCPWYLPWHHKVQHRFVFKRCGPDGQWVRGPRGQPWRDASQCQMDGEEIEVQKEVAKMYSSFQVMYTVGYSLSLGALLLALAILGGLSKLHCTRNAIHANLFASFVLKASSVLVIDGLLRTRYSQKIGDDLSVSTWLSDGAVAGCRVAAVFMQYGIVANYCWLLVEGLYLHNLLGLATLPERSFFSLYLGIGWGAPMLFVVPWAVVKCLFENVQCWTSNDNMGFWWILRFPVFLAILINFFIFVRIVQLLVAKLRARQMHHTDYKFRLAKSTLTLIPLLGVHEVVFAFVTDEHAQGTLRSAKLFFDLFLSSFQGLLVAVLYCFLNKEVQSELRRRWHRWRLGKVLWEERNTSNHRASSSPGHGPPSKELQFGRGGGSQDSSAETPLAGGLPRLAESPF

Consider `C[C@H](c1ccc(C(=O)NCCC(=O)O)cc1)N1C(=O)C(c2cc(Cl)cc(Cl)c2)=N[C@]12CC[C@@H](C(C)(C)C)CC2`, for which the IC50 at Glucagon receptor [1] amounted to 140 nM; on Glucagon receptor [2], 96 nM; against Glucagon receptor [3] it was 1200 nM; in experiment [4], 6400 nM.
As for `CC(C)(C)CC[C@H](c1ccc(C(=O)NCCC(=O)O)cc1)N1C(=O)C(c2cc(Cl)cc(Cl)c2)=N[C@]12CC[C@@H](C(C)(C)C)CC2`, the IC50 on Glucagon receptor [1] was 48 nM; against Glucagon receptor [2], 16 nM; against Glucagon receptor [3], 520 nM; in experiment [4] it was 2000 nM.
Take `C[C@H](c1ccc(C(=O)NCCC(=O)O)cc1)N1C(=O)C(c2cccc(F)c2)=N[C@]12CC[C@@H](C(C)(C)C)CC2`: the IC50 at Glucagon receptor [1] was 560 nM; on Glucagon receptor [2], 490 nM; on Glucagon receptor [3], 4400 nM; in experiment [4], more than 10000 nM.
With `CC(C)(C)CC[C@H](c1ccc(C(=O)NCc2nn[nH]n2)cc1)N1C(=O)C(c2cncc(Cl)c2)=N[C@]12CC[C@@H](C(C)(C)C)CC2`, the IC50 at Glucagon receptor [1] was 480 nM; at Glucagon receptor [2] it was 38 nM; on Glucagon receptor [3], 84 nM; in experiment [4] it was more than 10000 nM.
On to `CC(C)(C)[C@H]1CC[C@]2(CC1)N=C(c1cc(Cl)cc(Cl)c1)C(=O)N2[C@H](CCC(F)(F)F)c1ccc(C(=O)NCc2nn[nH]n2)cc1`, for which the IC50 is 370 nM on Glucagon receptor [1], 4 nM on Glucagon receptor [2], 110 nM against Glucagon receptor [3] and more than 10000 nM in experiment [4].
The corresponding values for `CC(CN1C(=O)C(c2cc(Cl)cc(Cl)c2)=N[C@]12CC[C@@H](C(C)(C)C)CC2)c1ccc(C(=O)NCCC(=O)O)cc1` (stereo not given in full) are 260 nM, 890 nM, 3300 nM and 7300 nM.
For `C[C@H](c1ccc(C(=O)NCCC(=O)O)cc1)N1C(=O)C(c2cc(Cl)ccc2F)=N[C@]12CC[C@@H](C(C)(C)C)CC2` the same measures were 750 nM, 340 nM, 4600 nM and more than 10000 nM.
Turning to `C[C@H](c1ccc(C(=O)NCCC(=O)O)cc1)N1C(=O)C(c2ccccc2Cl)=N[C@]12CC[C@@H](C(C)(C)C)CC2`, the IC50 on Glucagon receptor [1] is 2900 nM; against Glucagon receptor [2], 520 nM; at Glucagon receptor [3], 5400 nM; in experiment [4] it was more than 10000 nM.
For `CC(C)[C@H]1CC[C@]2(CC1)N=C(c1cc(Cl)cc(Cl)c1)C(=O)N2[C@H](CCC(C)(C)C)c1ccc(C(=O)NCc2nn[nH]n2)cc1` the same measures were 52 nM, 31 nM, 200 nM and more than 10000 nM.
The corresponding values for `C[C@H](c1ccc(C(=O)NCCC(=O)O)cc1)N1C(=O)C(c2cccc(OC(F)(F)F)c2)=N[C@]12CC[C@@H](C(C)(C)C)CC2` are 840 nM, 330 nM, 1500 nM and 2200 nM.
The corresponding values for `C[C@H](c1ccc(C(=O)NCCC(=O)O)cc1)N1C(=O)C(c2cccc(C3CC3)c2)=N[C@]12CC[C@@H](C(C)(C)C)CC2` are 340 nM, 56 nM, 1700 nM and more than 10000 nM.
For `C[C@H](c1ccc(C(=O)NCCC(=O)O)cc1)N1C(=O)C(c2ccc(OC(F)(F)F)cc2)=N[C@]12CC[C@@H](C(C)(C)C)CC2`, the IC50 is 1100 nM on Glucagon receptor [1], 67 nM at Glucagon receptor [2], 8000 nM on Glucagon receptor [3] and more than 10000 nM in experiment [4].
With `CC(C)(C)[C@H]1CC[C@]2(CC1)N=C(c1cc(Cl)cc(Cl)c1)C(=O)N2CCc1ccc(C(=O)NCCC(=O)O)cc1`, the IC50 is 170 nM at Glucagon receptor [1], 170 nM at Glucagon receptor [2], 1500 nM against Glucagon receptor [3] and more than 10000 nM in experiment [4].
Turning to `CC(C)(C)CC[C@H](c1ccc(C(=O)NCc2nn[nH]n2)cc1)N1C(=O)C(c2cc(F)cc(F)c2)=N[C@]12CC[C@@H](C(C)(C)C)CC2`, the IC50 on Glucagon receptor [1] was 110 nM; against Glucagon receptor [2] it was 23 nM; at Glucagon receptor [3], 140 nM; in experiment [4], more than 10000 nM.
`CC(C)(C)CC[C@H](c1ccc(C(=O)NCc2nn[nH]n2)cc1)N1C(=O)C(c2cccc(Cl)c2)=N[C@]12CC[C@@H](C(C)(C)C)CC2`: the IC50 on Glucagon receptor [1] is 130 nM; at Glucagon receptor [2], 14 nM; on Glucagon receptor [3] it was 130 nM; in experiment [4], more than 10000 nM.
As for `C[C@H](c1ccc(C(=O)NCCC(=O)O)cc1)N1C(=O)C(c2ccc(Cl)c(Cl)c2)=N[C@]12CC[C@@H](C(C)(C)C)CC2`, the IC50 was determined as 550 nM at Glucagon receptor [1], 95 nM against Glucagon receptor [2], 3200 nM against Glucagon receptor [3] and 4400 nM in experiment [4].
The corresponding values for `C[C@H](c1ccc(C(=O)NCCC(=O)O)cc1)N1C(=O)C(c2cccc(Cl)c2)=N[C@]12CC[C@@H](C(C)(C)C)CC2` are 480 nM, 130 nM, 3300 nM and 3900 nM.
With `CC(C)(C)CC[C@H](c1ccc(C(=O)NCc2nn[nH]n2)cc1)N1C(=O)C(c2ccc(F)c(F)c2)=N[C@]12CC[C@@H](C(C)(C)C)CC2`, the IC50 at Glucagon receptor [1] is 180 nM; at Glucagon receptor [2], 13 nM; on Glucagon receptor [3] it was 170 nM; in experiment [4], more than 10000 nM.
For `CC(C)C[C@H](c1ccc(C(=O)NCc2nn[nH]n2)cc1)N1C(=O)C(c2cc(Cl)cc(Cl)c2)=N[C@]12CC[C@@H](C(C)(C)C)CC2` the same measures were 760 nM, 15 nM, 420 nM and more than 10000 nM.
On to `C[C@H](c1ccc(C(=O)NC[C@H](O)C(=O)O)cc1)N1C(=O)C(c2cc(Cl)cc(Cl)c2)=N[C@]12CC[C@@H](C(C)(C)C)CC2`, for which the IC50 is more than 10000 nM at Glucagon receptor [1], 160 nM at Glucagon receptor [2], 1500 nM at Glucagon receptor [3] and more than 10000 nM in experiment [4].
For the compound `Cc1cccc(C2=N[C@]3(CC[C@@H](C(C)(C)C)CC3)N([C@H](C)c3ccc(C(=O)NCCC(=O)O)cc3)C2=O)c1`, the IC50 on Glucagon receptor [1] was 490 nM; on Glucagon receptor [2], 150 nM; against Glucagon receptor [3], 1700 nM; in experiment [4], more than 10000 nM.
The corresponding values for `C[C@H](c1ccc(C(=O)NCCC(=O)O)cc1)N1C(=O)C(c2cccc(Cl)c2F)=N[C@]12CC[C@@H](C(C)(C)C)CC2` are 630 nM, 620 nM, 4000 nM and more than 10000 nM.
`CC1(CC[C@H](c2ccc(C(=O)NCc3nn[nH]n3)cc2)N2C(=O)C(c3cc(Cl)cc(Cl)c3)=N[C@]23CC[C@@H](C(C)(C)C)CC3)CC1`: the IC50 on Glucagon receptor [1] is 100 nM; against Glucagon receptor [2], 17 nM; against Glucagon receptor [3] it was 110 nM; in experiment [4], more than 10000 nM.
Consider `CCCCC[C@H](c1ccc(C(=O)NCc2nn[nH]n2)cc1)N1C(=O)C(c2cc(Cl)cc(Cl)c2)=N[C@]12CC[C@@H](C(C)(C)C)CC2`, for which the IC50 on Glucagon receptor [1] was 130 nM; on Glucagon receptor [2], 24 nM; against Glucagon receptor [3] it was 310 nM; in experiment [4] it was more than 10000 nM.
For `CC[C@H](c1ccc(C(=O)NCc2nn[nH]n2)cc1)N1C(=O)C(c2cc(Cl)cc(Cl)c2)=N[C@]12CC[C@@H](C(C)(C)C)CC2` the same measures were 270 nM, 82 nM, 370 nM and more than 10000 nM.

For orientation: IC50 means the concentration at which inhibition is half-maximal.
